Target: T1, neuropeptide Y5 receptor (Homo sapiens, UniProt Q15761)
T1 construct: expressed in transfected cells; host or cells: CHO cells (membranes)
T1 sequence (Q15761 1-445): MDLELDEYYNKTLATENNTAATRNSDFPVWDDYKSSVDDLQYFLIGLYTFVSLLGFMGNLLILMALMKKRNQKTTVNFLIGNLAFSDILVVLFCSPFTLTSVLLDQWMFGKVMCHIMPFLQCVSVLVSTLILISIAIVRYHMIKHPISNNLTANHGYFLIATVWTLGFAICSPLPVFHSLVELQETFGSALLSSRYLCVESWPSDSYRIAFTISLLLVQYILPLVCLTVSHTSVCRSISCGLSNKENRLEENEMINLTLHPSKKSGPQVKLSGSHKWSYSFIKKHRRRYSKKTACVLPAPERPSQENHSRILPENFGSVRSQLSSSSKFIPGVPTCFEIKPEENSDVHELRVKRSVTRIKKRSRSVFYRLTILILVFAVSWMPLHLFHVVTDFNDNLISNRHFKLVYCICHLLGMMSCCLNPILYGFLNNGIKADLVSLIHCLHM
Experiment: NPY Receptor Binding Assay (125I-peptide YY, CHO cell membranes, neuropeptide Y5 receptor)
Settings: not given
Protocol: Human NPY receptors were expressed in CHO cells. Binding assays were performed in 50 mM HEPES, pH. […] Non-specific binding was determined in the presence of 1 uM NPY. The reaction mixtures were incubated for 90 minutes at 30° C. (NPY1 receptor) or at room temperature (NPY2, NPY4 and NPY5 receptors), then filtered through Millipore MAFC glass fiber filter plates which had been pre-soaked in 0.5% polyethyleneimine. The filters were washed with phosphate-buffered saline, and radioactivity was measured in a Packard TopCount scintillation counter.

Question: With `CN(C)C(=O)Nc1ccc(SC(C)(C)C)cc1` [Example 1M] as the molecule, how does the Ki read?
Answer: The Ki was 0.152 µM.

Same assay, conditions: neuropeptide Y5 receptor binding; 0.1 nM 125I-peptide YY; room temperature, 90 minutes; pH 7.2; r/h Y5; read-out: r/h Y5 Ki

Question: With `CCCC(C)(C)Oc1ccc(NC(=O)CC(C)(C)C)cc1` [Example 6C] as the molecule, how does the Ki read?
Answer: Its Ki is 0.668 µM.

Question: With `CCCC(C)(C)Sc1ccc(NC(=O)N(C)C2CCN(S(C)(=O)=O)CC2)cc1` [Example 13A] as the molecule, how does the Ki read?
Answer: Its Ki is 0.0008 µM.

Question: For `CCCC(C)(C)Sc1ccc(NC(=O)C(C)(C)C)cc1` [Example 1], which Ki is on record?
Answer: The Ki was 0.003 µM.

Question: With `CCC(C)(C)CCc1ccc(NC(=O)N(C)CCc2ccncc2)cc1` [Example 19] as the molecule, how does the Ki read?
Answer: The Ki was 0.0004 µM.

Question: How did the Ki turn out when `CCCCC1(Oc2ccc(NC(=O)N(C)c3ccccc3)cc2)CCCC1` [Example 6N] was run?
Answer: The Ki was 0.066 µM.

Question: How did the Ki turn out when `CCCC(C)(C)Sc1ccc(NC(=O)C(C)(C)C)cc1F` [Example 3] was run?
Answer: The Ki was 0.009 µM.

Question: Which Ki does the source give for `CCCC(C)(C)Sc1ccc(NC(=O)C(C)(C)N2CCN(c3ccccc3)CC2)cc1` [Example 8D] here?
Answer: Its Ki is 0.018 µM.

Question: With `CCCC(C)(C)Oc1ccc(NC(=O)C(C)(C)C)cc1` [Example 6] as the molecule, how does the Ki read?
Answer: Its Ki is 0.013 µM.

Question: How did the Ki turn out when `CCCC(C)(C)Sc1ccc(NC(=O)N(C)CCCN(C)C)cc1` [Example 2X] was run?
Answer: The Ki was 0.05 µM.

Question: With `CCCC(C)(C)Sc1ccc(NC(=O)NC2CCN(C)CC2)cc1` [Example 2Al] as the molecule, how does the Ki read?
Answer: Its Ki is 0.697 µM.
